This is an account of results in PMC5218480 (PLoS ONE, 2017).

The test deals with MV-4-11 cells. The experiment in a line: Gene expression microarray analysis (Affymetrix PrimeView) and GSEA. As to conditions: ProbeSet 11715478_a_at; LIST B. The class given is cell-based, human. On the set-up: RFU PODN (11730768_x_at) / Fold change /veh PODN (11730768_x_at) / RFU LINC00158 (11744669_a_at) / Fold change /veh LINC00158 (11744669_a_at) / RFU DUSP10 (11751237_a_at) / Fold change /veh DUSP10 (11751237_a_at) / RFU ID3 (11757404_x_at) / Fold change /veh ID3 (11757404_x_at) / RFU PLEKHG5 (11737974_s_at) / Fold change /veh PLEKHG5 (11737974_s_at) / RFU LRRC4B (11730491_at) / Fold change /veh LRRC4B (11730491_at) / RFU GIMAP4 (11747438_a_at) / Fold change /veh GIMAP4 (11747438_a_at) / RFU KRT8 (11758183_x_at) / Fold change /veh KRT8 (11758183_x_at) / RFU CNN1 (11734310_a_at) / Fold change /veh CNN1 (11734310_a_at) / RFU VPS37D (11726825_at) / Fold change /veh VPS37D (11726825_at) / RFU C10orf10 (11716522_x_at) / Fold change /veh C10orf10 (11716522_x_at) / RFU KIR2DL2 /// KIR2DL4 /// KIR2DL5A /// KIR2DL5B /// KIR2DS1 /// KIR2DS2 /// KIR2DS3 /// KIR2DS4 /// KIR3DL3 /// KIR3DL3 /// KIR3DS1 (11738374_at) / Fold change /veh KIR2DL2 /// KIR2DL4 /// KIR2DL5A /// KIR2DL5B /// KIR2DS1 /// KIR2DS2 /// KIR2DS3 /// KIR2DS4 /// KIR3DL3 /// KIR3DL3 /// KIR3DS1 (11738374_at) / RFU C1QL1 (11718748_at) / Fold change /veh C1QL1 (11718748_at) / RFU TMPRSS4 (11747572_a_at) / Fold change /veh TMPRSS4 (11747572_a_at) / RFU HAMP (11756126_x_at) / Fold change /veh HAMP (11756126_x_at) / RFU RNFT2 (11725882_a_at) / Fold change /veh RNFT2 (11725882_a_at) / RFU NR4A2 (11747474_a_at) / Fold change /veh NR4A2 (11747474_a_at) / RFU ABCC12 (11746883_a_at) / Fold change /veh ABCC12 (11746883_a_at) / RFU TMEM136 (11760407_x_at) / Fold change /veh TMEM136 (11760407_x_at) / RFU CLDN22 /// WWC2 (11732394_at) / Fold change /veh CLDN22 /// WWC2 (11732394_at) / RFU HLA-DPB1 (11760878_x_at) / Fold change /veh HLA-DPB1 (11760878_x_at) / RFU SPINT1 (11716480_a_at) / Fold change /veh SPINT1 (11716480_a_at) / RFU GAP43 (11754022_s_at) / Fold change /veh GAP43 (11754022_s_at) / RFU A4GNT (11735810_at) / Fold change /veh A4GNT (11735810_at) / RFU PRB3 (11715151_x_at) / Fold change /veh PRB3 (11715151_x_at) / RFU TUBB4B (11761932_at) / Fold change /veh TUBB4B (11761932_at) / RFU CAPN14 (11732068_a_at) / Fold change /veh CAPN14 (11732068_a_at) / RFU TMCC2 (11721928_a_at) / Fold change /veh TMCC2 (11721928_a_at) / RFU IRGQ (11745062_a_at) / Fold change /veh IRGQ (11745062_a_at) / RFU FAM174B (11720279_a_at) / Fold change /veh FAM174B (11720279_a_at) / RFU TMPRSS4 (11748680_a_at) / Fold change /veh TMPRSS4 (11748680_a_at) / RFU FAM212B (11763350_a_at) / Fold change /veh FAM212B (11763350_a_at) / RFU PLEKHG5 (11743358_a_at) / Fold change /veh PLEKHG5 (11743358_a_at) / RFU ZSCAN30 (11745921_a_at) / Fold change /veh ZSCAN30 (11745921_a_at) / RFU CMKLR1 (11741424_a_at) / Fold change /veh CMKLR1 (11741424_a_at) / RFU LOC101060620 /// MAPK8IP1 (11723275_at) / Fold change /veh LOC101060620 /// MAPK8IP1 (11723275_at) / RFU SPTSSB (11747773_x_at) / Fold change /veh SPTSSB (11747773_x_at) / RFU PRSS12 (11739890_at) / Fold change /veh PRSS12 (11739890_at) / RFU BIN1 (11741810_x_at) / Fold change /veh BIN1 (11741810_x_at) / RFU WNT11 (11732464_a_at) / Fold change /veh WNT11 (11732464_a_at) / RFU C10orf10 (11716521_a_at) / Fold change /veh C10orf10 (11716521_a_at) / RFU C5orf56 (11738089_at) / Fold change /veh C5orf56 (11738089_at) / RFU CYB561 (11721691_x_at) / Fold change /veh CYB561 (11721691_x_at) / RFU ANKRD19P (11752326_a_at) / Fold change /veh ANKRD19P (11752326_a_at) / RFU OR2T12 /// OR2T33 /// OR2T8 (11738714_s_at) / Fold change /veh OR2T12 /// OR2T33 /// OR2T8 (11738714_s_at) / RFU VCAN (11748164_a_at) / Fold change /veh VCAN (11748164_a_at) / RFU JSRP1 (11732532_at) / Fold change /veh JSRP1 (11732532_at) / RFU KRTAP10-11 (11738290_x_at) / Fold change /veh KRTAP10-11 (11738290_x_at) / RFU MYO3A (11730013_a_at) / Fold change /veh MYO3A (11730013_a_at) / RFU EBF3 (11725865_a_at) / Fold change /veh EBF3 (11725865_a_at) / RFU CAMK2N1 (11719241_x_at) / Fold change /veh CAMK2N1 (11719241_x_at) / RFU C5orf56 (11738088_a_at) / Fold change /veh C5orf56 (11738088_a_at) / RFU OLFML3 (11715873_a_at) / Fold change /veh OLFML3 (11715873_a_at) / RFU LOC100653217 /// NTM (11731650_a_at) / Fold change /veh LOC100653217 /// NTM (11731650_a_at) / RFU MAPK11 (11762145_a_at) / Fold change /veh MAPK11 (11762145_a_at) / RFU FIZ1 (11724087_x_at) / Fold change /veh FIZ1 (11724087_x_at) / RFU OASL (11726364_x_at) / Fold change /veh OASL (11726364_x_at) / RFU SOX15 (11748057_x_at) / Fold change /veh SOX15 (11748057_x_at) / RFU CD79A (11719716_a_at) / Fold change /veh CD79A (11719716_a_at) / RFU HIST1H1D (11736915_at) / Fold change /veh HIST1H1D (11736915_at) / RFU CASKIN2 (11723855_a_at) / Fold change /veh CASKIN2 (11723855_a_at) / RFU LOC730098 (11760151_x_at) / Fold change /veh LOC730098 (11760151_x_at) / RFU OR4N2 (11742367_at) / Fold change /veh OR4N2 (11742367_at) / RFU PRRT2 (11749266_a_at) / Fold change /veh PRRT2 (11749266_a_at) / RFU SNX32 (11753110_a_at) / Fold change /veh SNX32 (11753110_a_at) / RFU CDHR5 (11726645_a_at) / Fold change /veh CDHR5 (11726645_a_at) / RFU RCAN1 (11760418_a_at) / Fold change /veh RCAN1 (11760418_a_at) / RFU FAM167A (11723789_a_at) / Fold change /veh FAM167A (11723789_a_at) / RFU FAM26E (11764081_at) / Fold change /veh FAM26E (11764081_at) / RFU ISYNA1 (11749810_s_at) / Fold change /veh ISYNA1 (11749810_s_at) / RFU ACY1 (11761880_at) / Fold change /veh ACY1 (11761880_at) / RFU 11764098_at / Fold change /veh 11764098_at / RFU SAMD14 (11745864_x_at) / Fold change /veh SAMD14 (11745864_x_at) / RFU NPB (11741838_a_at) / Fold change /veh NPB (11741838_a_at) / RFU TMPRSS6 (11731388_a_at) / Fold change /veh TMPRSS6 (11731388_a_at) / RFU KRTAP10-2 (11738614_at) / Fold change /veh KRTAP10-2 (11738614_at) / RFU ARHGAP8 /// PRR5-ARHGAP8 (11727945_x_at) / Fold change /veh ARHGAP8 /// PRR5-ARHGAP8 (11727945_x_at) / RFU KRTAP5-7 /// NADSYN1 (11734609_at) / Fold change /veh KRTAP5-7 /// NADSYN1 (11734609_at) / RFU RASL12 (11751679_a_at) / Fold change /veh RASL12 (11751679_a_at) / RFU CDKN2B (11736163_a_at) / Fold change /veh CDKN2B (11736163_a_at) / RFU PRF1 (11729649_at) / Fold change /veh PRF1 (11729649_at) / RFU, ZNF638 /// ZNF638-IT1 / Fold change vs veh, ZNF638 /// ZNF638-IT1 / RFU, PANK3 / Fold change vs veh, PANK3 / RFU, SH3YL1 / Fold change vs veh, SH3YL1 / RFU, ZEB2 / Fold change vs veh, ZEB2 / RFU, NRIP1 / Fold change vs veh, NRIP1 / RFU, PTTG1IP / Fold change vs veh, PTTG1IP / RFU, CAPN2 / Fold change vs veh, CAPN2 / RFU, MED14 / Fold change vs veh, MED14 / RFU, SNORA58 / Fold change vs veh, SNORA58 / RFU, C1orf63 / Fold change vs veh, C1orf63 / RFU, LRRFIP1 / Fold change vs veh, LRRFIP1 / RFU, NDUFAF7 / Fold change vs veh, NDUFAF7 / RFU, SLC12A2 / Fold change vs veh, SLC12A2 / RFU, IBTK / Fold change vs veh, IBTK / RFU, ESF1 / Fold change vs veh, ESF1 / Fold change vs veh, TMEM50B / RFU, TAOK1 / Fold change vs veh, TAOK1 / RFU, ACBD3 / Fold change vs veh, ACBD3 / RFU, TMA16 / Fold change vs veh, TMA16 / RFU, RWDD3 / Fold change vs veh, RWDD3 / RFU, BCAT1 / Fold change vs veh, BCAT1 / RFU, EDEM3 / Fold change vs veh, EDEM3 / RFU, TMEM33 / Fold change vs veh, TMEM33 / RFU, WDR75 / Fold change vs veh, WDR75 / RFU, AHCTF1 / Fold change vs veh, AHCTF1 / RFU, TFRC / Fold change vs veh, TFRC / RFU, ZDHHC17 / Fold change vs veh, ZDHHC17 / RFU, NOM1 / Fold change vs veh, NOM1 / RFU, ARL8B / Fold change vs veh, ARL8B / RFU, ZBTB11 / Fold change vs veh, ZBTB11 / RFU, TAMM41 / Fold change vs veh, TAMM41 / RFU, KIAA1704 /// LOC100996395 / Fold change vs veh, KIAA1704 /// LOC100996395 / RFU, ING1 / Fold change vs veh, ING1 / RFU, TRMT61B / Fold change vs veh, TRMT61B / RFU, FUBP3 / Fold change vs veh, FUBP3 / RFU, TP53 / Fold change vs veh, TP53 / RFU, TNKS2 / Fold change vs veh, TNKS2 / RFU, ZFP14 / Fold change vs veh, ZFP14 / RFU, ACTR2 / Fold change vs veh, ACTR2 / RFU, PPP3R1 / Fold change vs veh, PPP3R1 / RFU, PIK3R1 / Fold change vs veh, PIK3R1 / RFU, HNRNPA1 / Fold change vs veh, HNRNPA1 / RFU, RNF170 / Fold change vs veh, RNF170 / RFU, ZNF28 / Fold change vs veh, ZNF28 / RFU, RNGTT / Fold change vs veh, RNGTT / RFU, OGT / Fold change vs veh, OGT / RFU, BRD1 / Fold change vs veh, BRD1 / RFU, MARS / Fold change vs veh, MARS / RFU, ZNF655 / Fold change vs veh, ZNF655 / RFU, FAHD1 / Fold change vs veh, FAHD1 / RFU, BDP1 / Fold change vs veh, BDP1 / RFU, LRRCC1 / Fold change vs veh, LRRCC1 / RFU, ARID1A / Fold change vs veh, ARID1A / RFU, ZNF146 / Fold change vs veh, ZNF146 / RFU, ZNF330 / Fold change vs veh, ZNF330 / RFU, GPN3 / Fold change vs veh, GPN3 / RFU, C9orf123 / Fold change vs veh, C9orf123 / RFU, N4BP2L2 / Fold change vs veh, N4BP2L2 / RFU, ARFIP1 / Fold change vs veh, ARFIP1 / RFU, FAM179B / Fold change vs veh, FAM179B / RFU, BCL10 / Fold change vs veh, BCL10 / RFU, UHRF1BP1L / Fold change vs veh, UHRF1BP1L / RFU, BET1 / Fold change vs veh, BET1 / RFU, CNOT2 / Fold change vs veh, CNOT2 / RFU, ZNF268 / Fold change vs veh, ZNF268 / Fold change vs veh, ZNF507 / RFU, DGCR2 / Fold change vs veh, DGCR2 / RFU, WDSUB1 / Fold change vs veh, WDSUB1 / Fold change vs veh, HSP90B1 /// MIR3652 / RFU, ADSS / Fold change vs veh, ADSS / RFU, GK / Fold change vs veh, GK / RFU, ZNF148 / Fold change vs veh, ZNF148 / RFU, TAF9 / Fold change vs veh, TAF9 / RFU, SLC1A5 / Fold change vs veh, SLC1A5 / RFU, SLMO2 / Fold change vs veh, SLMO2 / RFU, ABCC4 / Fold change vs veh, ABCC4 / RFU, LOC101060439 /// RAP1B / Fold change vs veh, LOC101060439 /// RAP1B / RFU, RFX7 / Fold change vs veh, RFX7 / RFU, GTPBP10 / Fold change vs veh, GTPBP10 / RFU, CNEP1R1 / Fold change vs veh, CNEP1R1 / RFU, BIVM-ERCC5 /// ERCC5 / Fold change vs veh, BIVM-ERCC5 /// ERCC5 / RFU, ILF3 / Fold change vs veh, ILF3 / RFU 11762660_at / Fold change /veh 11762660_at / RFU VCAN (11757783_s_at) / Fold change /veh VCAN (11757783_s_at) / RFU DDX43 (11728927_at) / Fold change /veh DDX43 (11728927_at) / RFU KRT8 (11758188_x_at) / Fold change /veh KRT8 (11758188_x_at) / RFU NKD1 (11759106_at) / Fold change /veh NKD1 (11759106_at) / RFU SRD5A1 (11742802_a_at) / Fold change /veh SRD5A1 (11742802_a_at) / RFU TPSAB1 /// TPSB2 (11721975_s_at) / Fold change /veh TPSAB1 /// TPSB2 (11721975_s_at) / RFU GSTM3 (11746129_a_at) / Fold change /veh GSTM3 (11746129_a_at) / RFU IL23R (11737362_x_at) / Fold change /veh IL23R (11737362_x_at) / RFU TMEM51 (11727254_a_at) / Fold change /veh TMEM51 (11727254_a_at) / RFU PIWIL2 (11732686_x_at) / Fold change /veh PIWIL2 (11732686_x_at) / RFU ORM1 (11744905_x_at) / Fold change /veh ORM1 (11744905_x_at) / RFU CCDC152 (11743942_at) / Fold change /veh CCDC152 (11743942_at) / RFU ECM1 (11717891_a_at) / Fold change /veh ECM1 (11717891_a_at) / RFU IL23R (11748794_a_at) / Fold change /veh IL23R (11748794_a_at) / RFU TNFAIP8L3 (11732012_x_at) / Fold change /veh TNFAIP8L3 (11732012_x_at) / RFU MBOAT4 (11741988_at) / Fold change /veh MBOAT4 (11741988_at) / RFU 11764193_at / Fold change /veh 11764193_at / RFU TMEM53 (11763286_at) / Fold change /veh TMEM53 (11763286_at) / RFU MAGEB2 (11727129_at) / Fold change /veh MAGEB2 (11727129_at) / RFU TMEM200A (11744735_a_at) / Fold change /veh TMEM200A (11744735_a_at) / RFU CCDC152 (11751479_a_at) / Fold change /veh CCDC152 (11751479_a_at) / RFU FAM211A (11726209_a_at) / Fold change /veh FAM211A (11726209_a_at) / RFU RGS16 (11746705_a_at) / Fold change /veh RGS16 (11746705_a_at) / RFU VCAN (11755009_s_at) / Fold change /veh VCAN (11755009_s_at) / RFU RHOB (11743442_s_at) / Fold change /veh RHOB (11743442_s_at) / RFU RGS16 (11720943_a_at) / Fold change /veh RGS16 (11720943_a_at) / RFU RGS16 (11720944_at) / Fold change /veh RGS16 (11720944_at) / RFU, VPS4B / Fold change vs veh, VPS4B / RFU, CREB1 / Fold change vs veh, CREB1 / RFU, DNAJC13 / Fold change vs veh, DNAJC13 / RFU, GNAQ / Fold change vs veh, GNAQ / RFU, CDK5R1 / Fold change vs veh, CDK5R1 / RFU, ZRANB3 / Fold change vs veh, ZRANB3 / RFU, CUL4A / Fold change vs veh, CUL4A / RFU, CCNY / Fold change vs veh, CCNY / RFU, UFL1 / Fold change vs veh, UFL1 / RFU, COG3 / Fold change vs veh, COG3 / RFU, DIAPH2 / Fold change vs veh, DIAPH2 / RFU, SKA2 / Fold change vs veh, SKA2 / RFU, AFF3 / Fold change vs veh, AFF3 / RFU, LMF1 / Fold change vs veh, LMF1 / RFU, IPO11 / Fold change vs veh, IPO11 / RFU, DFFB / Fold change vs veh, DFFB / RFU, FOXP1 / Fold change vs veh, FOXP1 / RFU, CARD8 / Fold change vs veh, CARD8 / RFU, STRN3 / Fold change vs veh, STRN3 / RFU, ADK / Fold change vs veh, ADK / RFU, RASSF2 / Fold change vs veh, RASSF2 / RFU, WIPF1 / Fold change vs veh, WIPF1 / RFU, LARP1B / Fold change vs veh, LARP1B / RFU, RASA1 / Fold change vs veh, RASA1 / RFU, RB1 / Fold change vs veh, RB1 / RFU, PPFIA1 / Fold change vs veh, PPFIA1 / RFU, MAT2A / Fold change vs veh, MAT2A / RFU, CCT5 / Fold change vs veh, CCT5 / RFU, WDR92 / Fold change vs veh, WDR92 / RFU, CUX1 / Fold change vs veh, CUX1 / RFU, TTC7A / Fold change vs veh, TTC7A / RFU, TMEM135 / Fold change vs veh, TMEM135 / RFU, DEPTOR / Fold change vs veh, DEPTOR / RFU, CPM / Fold change vs veh, CPM / RFU, DNAJB6 / Fold change vs veh, DNAJB6 / RFU, CACNA2D3 / Fold change vs veh, CACNA2D3 / RFU, DTX4 / Fold change vs veh, DTX4 / RFU, TFCP2 / Fold change vs veh, TFCP2 / RFU, GMCL1 /// GMCL1P1 / Fold change vs veh, GMCL1 /// GMCL1P1 / RFU, AEBP2 / Fold change vs veh, AEBP2 / RFU, SNHG1 /// SNORD22 /// SNORD25 /// SNORD26 /// SNORD27 /// SNORD28 /// SNORD29 /// SNORD31 / Fold change vs veh, SNHG1 /// SNORD22 /// SNORD25 /// SNORD26 /// SNORD27 /// SNORD28 /// SNORD29 /// SNORD31 / Fold change (Aza/veh), C12orf56 (ProbeSet 11735607_a_at) / Fold change (ACY-1035/veh), C12orf56 (ProbeSet 11735607_a_at) / Fold change (Aza/veh), FGFR1OP (ProbeSet 11751329_s_at) / Fold change (ACY-1035/veh), FGFR1OP (ProbeSet 11751329_s_at) / Fold change (Aza/veh), VPS36 (ProbeSet 11739960_a_at) / Fold change (ACY-1035/veh), VPS36 (ProbeSet 11739960_a_at) / RFU SYPL1 (11715823_x_at) / Fold change /veh SYPL1 (11715823_x_at) / RFU IGFBP7 (11715501_s_at) / Fold change /veh IGFBP7 (11715501_s_at) / RFU REEP3 (11722064_at) / Fold change /veh REEP3 (11722064_at) / RFU IGLL1 (11728026_x_at) / Fold change /veh IGLL1 (11728026_x_at): dose or concentration left out as unconfirmed.

Turning to `Nc1ccc(-c2cccs2)cc1NC(=O)c1ccc2c(c1)cc(C1CC1)n2CCN1CCOCC1` [ACY-1035], the “RFU, TFRC” value is on record as 135.12 RFU.
